Experimental findings from ChEMBL document CHEMBL1926539, “Discovery of novel selective inhibitors of Staphylococcus aureus β-ketoacyl acyl carrier protein synthase III” (Eur J Med Chem, 2012) are described below.

In data set [1] the test system is Staphylococcus aureus. Kind of data set: Antimicrobial activity against Staphylococcus aureus KCTC 1621 after 20 hrs by 2 fold serial broth dilution method. It counts as functional. Particulars: KCTC 1621, 20 h. (In general: Dilution methods test growth across graded concentrations, often in twofold steps.)
Another data set has as its system Enterococcus faecalis. Put plainly: Antimicrobial activity against Enterococcus faecalis KCTC 2011 after 20 hrs by 2 fold serial broth dilution method. The class given is functional. The conditions noted are these: KCTC 2011, 20 h.
The nature of data set [2]: Inhibition of Staphylococcus aureus recombinant GST-tagged KAS3 expressed in Escherichia coli (DE3) at 1:10 protein to drug ratio by fluorescence quenching analysis.
Data set [3] deals with Staphylococcus aureus. Kind of data set: Antimicrobial activity against methicillin-resistant Staphylococcus aureus CCARM 3114 after 20 hrs by 2 fold serial broth dilution method. It counts as functional. Particulars: CCARM 3114, 20 h.
For a further data set, the system named is Escherichia coli. Put plainly: Antimicrobial activity against Escherichia coli KCTC 1682 after 20 hrs by 2 fold serial broth dilution method. It counts as functional. Particulars: KCTC 1682, 20 h.
The test system of another data set is Enterococcus faecium. Kind of data set: Antimicrobial activity against vancomycin-resistant Enterococcus faecium clinical isolate after 20 hrs by 2 fold serial broth dilution method. It counts as functional.
Data set [4] is described as follows: Cytotoxicity against mouse NIH/3T3 cells assessed as cell survival at 100 nM after 24 hrs by MTT assay. The class given is cell-based, NIH3T3. Particulars: read-out: Activity.
Data set [5] deals with NIH3T3. Put plainly: Cytotoxicity against mouse NIH/3T3 cells after 24 hrs by MTT assay. Particulars: NIH3T3, 24 h. The class given is cell-based. (Tetrazolium dyes change colour on reduction, which living cells bring about.)
For data set [6], the system named is NIH3T3. Put plainly: Cytotoxicity against mouse NIH/3T3 assessed as cell survival at MIC after 24 hrs by MTT assay. It counts as cell-based. Particulars: nih3t3, 24 h.

Structures are written as SMILES. In brackets after ≈: the same amount, converted by molar mass.

Regarding `Cc1nc2ccccc2c(=O)n1/N=C/c1ccc(O)cc1O`, the MIC in the data set on Staphylococcus aureus [1], in the data set on Enterococcus faecalis, against Staphylococcus aureus [3], with Escherichia coli and against Enterococcus faecium was more than 512 µg/mL each time. In addition, in data set [2], the Kd is 0.0009 µM.

For `C=C/C(C)=C/[C@@]1(C)SC(=O)C(C)=C1O` [THIOLACTOMYCIN], in [2], the Kd was 55.4 µM. The viability at 24 h, 0.1 µM in data set [4] worked out at 85%. Moreover, the MIC with Enterococcus faecium came to 128 µg/mL (≈ 609 µM).

On to `Oc1ccc(/C=N/c2ccc(Cl)cc2Cl)c(O)c1`, for which the MIC against Staphylococcus aureus [1] was 128 µg/mL (≈ 454 µM); against Enterococcus faecalis, more than 512 µg/mL; in the data set with Staphylococcus aureus [3] it was 128 µg/mL (≈ 454 µM); with Escherichia coli, 64 µg/mL (≈ 227 µM); against Enterococcus faecium, more than 512 µg/mL. In addition, the Kd in data set [2] came to 0.72 µM.

In the case of `Oc1ccc(/C=N/Nc2ccc(C(F)(F)F)cn2)c(O)c1`, the MIC in the data set with Staphylococcus aureus [1] is 2 µg/mL (≈ 6.73 µM); against Enterococcus faecalis, 64 µg/mL (≈ 215 µM); in the data set with Staphylococcus aureus [3], 4 µg/mL (≈ 13.5 µM); against Escherichia coli, 512 µg/mL (≈ 1720 µM); in the data set on Enterococcus faecium, 32 µg/mL (≈ 108 µM). Further, the dissociation constant (Kd) in [2] came to 0.0008 µM. In data set [4], the viability at 24 h, 0.1 µM is 67%.

On to `COc1ccccc1NC(=O)c1nc[nH]n1`, for which the MIC with Staphylococcus aureus [1], against Enterococcus faecalis, against Staphylococcus aureus [3], with Escherichia coli and against Enterococcus faecium was more than 512 µg/mL throughout. In data set [2], the Kd stood at 34.1 µM.

For the compound `CCOC(=O)N/N=C/c1ccc(O)cc1O`, the MIC with Staphylococcus aureus [1] was 256 µg/mL (≈ 1140 µM); against Enterococcus faecalis, more than 512 µg/mL; against Staphylococcus aureus [3], 512 µg/mL (≈ 2280 µM); with Escherichia coli it was more than 512 µg/mL; against Enterococcus faecium it was 256 µg/mL (≈ 1140 µM). In data set [2], the Kd worked out at 1.48 µM.

As for `OC[C@@H]1O[C@H](Oc2cccc(Cl)c2)[C@H](O)[C@H](O)[C@H]1O`, the MIC in the data set on Staphylococcus aureus [1] was more than 512 µg/mL; against Enterococcus faecalis, more than 512 µg/mL; against Staphylococcus aureus [3] it was more than 512 µg/mL; against Escherichia coli it was more than 512 µg/mL; against Enterococcus faecium it was 256 µg/mL (≈ 881 µM). Further, the Kd in data set [2] came out at 0.36 µM.

Regarding `NC(=O)C1(C(N)=O)OC1c1ccc(Cl)c(Cl)c1` (stereo not given), the MIC was determined as 256 µg/mL (≈ 931 µM) against Staphylococcus aureus [1]; 256 µg/mL (≈ 931 µM) in the data set on Enterococcus faecalis; 256 µg/mL (≈ 931 µM) against Staphylococcus aureus [3]; 256 µg/mL (≈ 931 µM) against Escherichia coli; 32 µg/mL (≈ 116 µM) in the data set with Enterococcus faecium. Further, in [2], the Kd was more than 1000 µM.

Turning to `Cc1cccc(NC(=O)CC2SC(=O)NC2=O)c1` (stereo not given), the MIC against Staphylococcus aureus [1], against Enterococcus faecalis, in the data set with Staphylococcus aureus [3], with Escherichia coli and in the data set with Enterococcus faecium was more than 512 µg/mL each time. The Kd in data set [2] was more than 1000 µM.

Turning to `Cc1n[nH]c(C)c1CCC(=O)N/N=C/c1ccc(O)cc1O`, the MIC is 128 µg/mL (≈ 423 µM) in the data set on Staphylococcus aureus [1]; more than 512 µg/mL in the data set on Enterococcus faecalis; 128 µg/mL (≈ 423 µM) with Staphylococcus aureus [3]; 256 µg/mL (≈ 847 µM) against Escherichia coli; more than 512 µg/mL against Enterococcus faecium. In addition, the Kd in data set [2] was 0.23 µM.

For the compound `Nc1ccc(NC(=O)NC2CCCCC2)cc1[N+](=O)[O-]`, the MIC against Staphylococcus aureus [1] was more than 512 µg/mL; with Enterococcus faecalis, 128 µg/mL (≈ 460 µM); in the data set on Staphylococcus aureus [3], more than 512 µg/mL; in the data set with Escherichia coli, more than 512 µg/mL; in the data set on Enterococcus faecium, 256 µg/mL (≈ 920 µM). The Kd in [2] was found to be 649 µM.

Turning to `CCOC(=O)/C(C#N)=C/c1ccc(O)cc1O`, the MIC is more than 512 µg/mL in the data set on Staphylococcus aureus [1]; 256 µg/mL (≈ 1100 µM) in the data set with Enterococcus faecalis; 256 µg/mL (≈ 1100 µM) against Staphylococcus aureus [3]; more than 512 µg/mL against Escherichia coli; more than 512 µg/mL in the data set with Enterococcus faecium. Further, the Kd in data set [2] came out at 44 µM.

Turning to `CCCCCC12CCC(O)(CC1)CC2O` (stereo not given), the minimal inhibitory concentration (MIC) against Staphylococcus aureus [1], in the data set with Enterococcus faecalis, in the data set on Staphylococcus aureus [3], in the data set on Escherichia coli and in the data set on Enterococcus faecium was more than 512 µg/mL in each case. For the same compound, the Kd in [2] was more than 1000 µM.

As for `Oc1ccc(/C=N/Nc2nccnc2Cl)c(O)c1`, the MIC in the data set with Staphylococcus aureus [1] was 1 µg/mL (≈ 3.78 µM); in the data set on Enterococcus faecalis it was more than 512 µg/mL; against Staphylococcus aureus [3], 1 µg/mL (≈ 3.78 µM); in the data set with Escherichia coli, more than 512 µg/mL; against Enterococcus faecium it was 32 µg/mL (≈ 121 µM). For the same compound, the Kd in data set [2] was determined as 0.0003 µM. Also, the IC50 with NIH3T3 [5] was determined as 10.3 µM. In the data set on NIH3T3 [6], the Activity entry is on record as “Non-toxic”.

As to `Cc1nc(CC(=O)c2c(C)cc(O)cc2O)cs1`, the MIC against Staphylococcus aureus [1], against Enterococcus faecalis, against Staphylococcus aureus [3], in the data set with Escherichia coli and in the data set with Enterococcus faecium was more than 512 µg/mL throughout. Moreover, the Kd in [2] is more than 1000 µM.

For the compound `O=C(N/N=C/c1ccc(O)c(O)c1O)c1ccc(Cl)cc1Cl`, the MIC in the data set on Staphylococcus aureus [1] was found to be 4 µg/mL (≈ 11.7 µM); in the data set with Enterococcus faecalis, 32 µg/mL (≈ 93.8 µM); against Staphylococcus aureus [3], 4 µg/mL (≈ 11.7 µM); in the data set with Escherichia coli, 64 µg/mL (≈ 188 µM); against Enterococcus faecium, 32 µg/mL (≈ 93.8 µM). The Kd in [2] was determined as 0.0072 µM. Also, half-maximal inhibition in the data set on NIH3T3 [5] (IC50) required 10.9 µM. In the data set with NIH3T3 [6], the Activity entry is “Non-toxic”.

`Oc1ccc(/C=N/c2cc(Cl)cc(Cl)c2)c(O)c1`: the MIC in the data set with Staphylococcus aureus [1] was 64 µg/mL (≈ 227 µM); against Enterococcus faecalis, 512 µg/mL (≈ 1810 µM); with Staphylococcus aureus [3], 128 µg/mL (≈ 454 µM); against Escherichia coli, 64 µg/mL (≈ 227 µM); against Enterococcus faecium, more than 512 µg/mL. The Kd in data set [2] stood at 0.61 µM.

In the case of `O=[N+]([O-])c1ccccc1N/N=C/c1ccc(O)c(O)c1`, the MIC against Staphylococcus aureus [1] was more than 512 µg/mL; against Enterococcus faecalis, 256 µg/mL (≈ 937 µM); in the data set with Staphylococcus aureus [3], more than 512 µg/mL; in the data set on Escherichia coli, more than 512 µg/mL; against Enterococcus faecium, 256 µg/mL (≈ 937 µM). Also, the Kd in [2] is 3.18 µM.

By MIC is commonly meant the smallest concentration in the dilution series that meets the test's criterion for growth inhibition. Low values mean greater potency, high ones weaker potency. The term Kd denotes a measure of binding affinity in units of concentration. Broadly, the IC50 is the concentration that inhibits the measured activity by half. Lower therefore signals greater potency in that assay.
